Here are results for two molecules from US20250000877A1, “COMPOSITION CONTAINING TAURODEOXYCHOLIC ACID OR PHARMACEUTICALLY ACCEPTABLE SALT THEREOF AS ACTIVE INGREDIENT FOR PREVENTING OR TREATING VIRAL INFECTIOUS DISEASES” (SHAPERON INC., priority 2021, published 2025).

Like-named read-outs stand apart in the source and are kept apart here.

In assay [1] the test system is influenza virus CA04 (human H1N1). Nature of the assay: Lung lesions / histopathological scoring in influenza virus-infected animal model. The format is in vivo, mice. To be noted: for pathological scoring of lung lesions: score 0-4 per Table 2. How it is done: Specifically, female BLAB/C mice aged 7 weeks were purchased and allowed to acclimate for one week before the experiments commenced. The experimental animals were housed under conditions of 22±2° C. temperature, 55±5% relative humidity, and a 12-hour light-dark cycle. Water was provided ad libitum, and sterilized feed was freely accessible.
Next, as shown in the schematic diagram of FIG. 1, influenza virus CA04 (human H1N1) was intranasally inoculated at a concentration of 2LD50 (30 μl/mouse), and the drug was administered by dividing into four groups as shown in [Table 1] below. The positive control group was administered dexamethasone, an anti-inflammatory drug, as a drug, and the experimental group was administered HY209 as a low dose (1 mpk) or a high dose (4 mpk) as a drug. The drug was administered intraperitoneally at a dose of 100 μl/mouse on the third day after virus infection. In addition, lung tissues were separated and stored after autopsy of each group on the 7th day (7 dpi), 10th day (10 dpi), and 11th day (11 dpi) of virus infection.
Specifically, each of the test groups of Example 1 was autopsied on the 7th day (7 dpi), 10th day (10 dpi), and 11th day (11 dpi) of viral infection, and then the lungs were separated. The separated lung lesions were visually confirmed (FIGS. 3a to 3c), and lung lesions were scored according to the pathological scoring criteria of Table 2 below, and then graphed (FIGS. 4a and 4b).

The subject of another assay is IL-1β. In kind it is in vivo, mice.
Where [2] appears, read: 7 dpi, 1 mpk intraperitoneally from DPI 3, virus infection group G1 2.8±0.84.
Where [3] appears, read: 11 dpi, 1 mpk intraperitoneally from DPI 3, virus infection group G1 4±0.

Consider `C[C@H](CCC(=O)NCCS(=O)(=O)O)[C@H]1CC[C@H]2[C@@H]3CC[C@@H]4C[C@H](O)CC[C@]4(C)[C@H]3C[C@H](O)[C@]12C` [HY209, Sodium taurodeoxycholate], for which the “pathological scoring of lung lesions” value in assay [1] (setting [2]) was determined as 2.6±0.55; in assay [1] (7 dpi, 4 mpk intraperitoneally from DPI 3, virus infection group G1 2.8±0.84), 1.8±0.45; in assay [1] (setting [3]), 2.8±0.84; in assay [1] (11 dpi, 4 mpk intraperitoneally from DPI 3, virus infection group G1 4±0), 2.29±0.76. Besides, the “reduction in pathological scores compared to the virus infection group (G1)” value in assay [1] (7 dpi, 4 mpk (G4), P=0.046) was “statistically significant reduction”; in assay [1] (11 dpi, 1 mpk (G2 P=0.002, G3 P=0.013)), “statistically significant reduction”; in assay [1] (11 dpi, 4 mpk (G4), P=0.0005), “statistically significant reduction”. The “production of inflammatory cells in the lungs” value in assay [1] (low (1 mpk) or high (4 mpk) dose groups compared to the virus infection group, summary statement) is given as “reduced”. Also, the IL-1β levels entry in the assay on IL-1β ([…], serum samples, HY209 1 mpk (G3) vs G1) was “significant decrease”. Further, in the assay with IL-1β (mouse, in vivo), the “production of inflammatory cytokine IL-1β in the lungs” value is on record as “reduced”. For the same molecule, the “IL-1β levels in lung tissue samples” value is recorded as “significant decrease” in the assay with IL-1β (mouse, in vivo, 1 mg/kg) and “significant decrease” with IL-1β (mouse, in vivo, 4 mg/kg).
Regarding `C[C@@H]1C[C@H]2[C@@H]3CCC4=CC(=O)C=C[C@]4(C)[C@@]3(F)[C@@H](O)C[C@]2(C)[C@@]1(O)C(=O)CO` [dexamethasone, reference compound], the figures for the “pathological scoring of lung lesions” value in assay [1] (setting [2]) and in assay [1] (setting [3]) were 1.8±0.45 and 2.5±0.71, respectively.
